Data from patent US7071316B1, “Human Akt-3” (Janssen Pharmaceutica N.V., priority 1998, dated 2006).
“And” between values parts separate entries of the source, which are not always exact repeats. Equal values may be shown once.

Assays:
[1] = molecular target: T1, T305D,S472D variant of Akt-3 (Homo sapiens, UniProt Q9Y243, S472D/T305D); experiment: Akt-3 histone H2B phosphorylation assay (GST fusion protein from E. coli, phosphorimager after SDS-PAGE); assay type: biochemical; settings: for effect on the activity of the T305D,S472D variant of Akt-3: tested at a concentration of 10 FM
T1 construct: made in house; host or cells: E. coli BL21 DE3 (pGEX-4T-3)
T1 sequence (Q9Y243 whole entry T305D/S472D, the tested form may be a part): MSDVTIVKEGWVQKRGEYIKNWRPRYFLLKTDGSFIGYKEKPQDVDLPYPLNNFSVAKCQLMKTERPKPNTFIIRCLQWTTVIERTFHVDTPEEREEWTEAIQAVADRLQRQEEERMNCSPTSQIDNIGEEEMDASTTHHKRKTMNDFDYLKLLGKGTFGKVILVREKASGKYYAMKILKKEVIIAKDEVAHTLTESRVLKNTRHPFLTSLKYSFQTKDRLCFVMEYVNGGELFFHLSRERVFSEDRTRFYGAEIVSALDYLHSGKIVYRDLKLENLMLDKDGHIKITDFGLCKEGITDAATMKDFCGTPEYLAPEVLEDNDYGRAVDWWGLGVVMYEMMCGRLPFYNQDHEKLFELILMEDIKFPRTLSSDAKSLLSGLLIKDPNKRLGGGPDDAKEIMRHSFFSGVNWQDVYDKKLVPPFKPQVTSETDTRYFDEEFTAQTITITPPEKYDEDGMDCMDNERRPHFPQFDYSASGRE
Protocol: After 30 minutes, the reaction was terminated and the extent of H2B phosphorylation quantified on a phosphorimager following SDS-PAGE.
The pGEX expression constructs were transformed into E. coli strain BL21 DE3 and GST-fusion proteins of wild-type and mutated Akt-3 were purified on glutathione sepharose according to the manufacturers instructions (Amersham Pharmacia Biotech, Uppsala, Sweden). The protein eluted from the beads was stored in 50% glycerol at −20° C. Akt activity was assessed by incubating 0.8 Fg of the purified enzyme for 30 minutes at room temperature (unless otherwise indicated) in a buffer containing 10 mM HEPES, 10 mM MgCl2, 1 mM DTT, 0.1 mg/ml histone H2B at pH 7.0, in a total volume of 25 Fl and containing 10 FCi [γ-^32P]-ATP (6000 Ci/mmol). […] The reaction was stopped by the addition of 25 Fl sample buffer for SDS-PAGE. The results were quantified on a phosphorimager following SDS-PAGE on a 15% (w/v) acrylamide gel.

Akt-3 [2] = experiment: Activation of HA-tagged Akt-3 by IGF-1 in transfected Cos-7 cells (HA immunoprecipitates); assay type: cell-based, human; settings: stimulation with IGF-1 10 ng/ml, n=2
Protocol: Akt-3 was transiently expressed in Cos-7 by calcium phosphate transfection of the cells with the construct HA-hAkt-3/pcDNA-3. The cells were stimulated with 10 ng/ml IGF-1 for 30 minutes, lysed and Akt-3 immunoprecipitated with mAb 12CA5. Akt-3 activity was assessed as described below.

Akt-3 [3] = experiment: Activation of HA-tagged Akt-3 by IGF in transfected HEK-293 cells (immunoprecipitate, Crosstide phosphorylation); assay type: cell-based, human
Protocol: FIG. 3 is an illustration of phosphorylation of histone H2B by Akt-3 variants. (A) Akt-3 was expressed as a GST fusion protein in E. Coli. To assess hAkt-3 activity, Histone H2B was incubated with GST-Akt-3 and GST-Akt-3 variants for the indicated time and the extent of phosphorylation assessed after SDS-PAGE. The variants of Akt-3 are designated: W.T., wild type; T305D, Thr^305 mutated to Asp; S472D, Ser^472 mutated to Asp; T305D,S472D, both Thr^305 and Ser^472 mutated to Asp. No significant phosphorylation was observed when GST was used in place of GST-Akt. […] Samples were analysed by blotting for the HA-tag (upper panel) or with a phosphospecific antibody which recognises phosphorylated ser^472 (lower panel). (C) Akt activity in HA-immuno-precipitates from samples prepared as described above was assessed by measuring phosphorylation of a peptide substrate (Crosstide). The results are expressed as the increase in activity compared to unstimulated cells transfected with empty vector (mean±s.e.m., n=7).
For expression in HEK-293 cells, cells were transfected with pCDNA-3 Akt-3 constructs as described previously (Alessi et al 1996). […] Akt activity was assessed in immune complexes by measuring phosphorylation of a peptide substrate (Crosstide) in the presence of 1 μM PKI (PKA inhibitor) and 1 μM […] (PKC inhibitor) as described.

PKC [4] = settings: Davis, et al., 1992; cited from earlier work
PKC [5] = experiment: Inhibition of PKC (literature, Davis et al., 1992); assay type: biochemical; settings: more potent inhibitor of PKC than of Akt-3
histone H2B [6] = tested on: histone H2B
histone H2B [7] = molecular target: histone H2B; remark: listed apart in the source

For `O=S(=O)(NCCNCC=Cc1ccccc1)c1cccc2cnccc12` [H-88], the “effect on the activity of the T305D,S472D variant of Akt-3” value (from here on “effect on the activity”) [1] was “no significant effect”.

In the case of “IGF-1: extracellular stimulus (growth factor) used to activate Akt-3 in transfected cells”, the “increase of Akt-3 activity in HA immunoprecipitates” value (Akt-3 [2]) is reported as 1.5 fold and 1.9 fold and the “increase of Akt-3 activity in anti-HA immunoprecipitates” value (Akt-3 [3]; upon treatment with IGF (50 ng/ml), above that in untransfected cells, HEK-293) is reported as about 60 fold.

With `CN([C@@H](Cc1ccc(OS(=O)(=O)c2cccc3cnccc23)cc1)C(=O)N1CCN(c2ccccc2)CC1)S(=O)(=O)c1cccc2cnccc12` [KN-62] the “effect on the activity” value [1] was “no significant effect”.

In the case of `Cn1cc(C2=C(c3cn(CCCSC(=N)N)c4ccccc34)C(=O)NC2=O)c2ccccc21` [Ro 31-8220], the IC50 (PKC [4]) is given as 0.1 nM, the “potency as inhibitor of PKC relative to Akt-3” value (PKC [5]) is given as “approximately 100 fold” and the “inhibition of Akt-3 (in words)” value ([1]; discussion summary of the inhibitor panel) is given as “potently inhibited”.

In the case of “GST-Akt-3 S472D (construct hAKT-3(S472D)/pGEX-4T-3)”, the “initial rate of phosphorylation of histone H2B, relative to the wild-type enzyme” value (shortened to “initial rate … relative to the wild-type enzyme”) (histone H2B [6]) is reported as “increased the initial rate only 1.4 fold”.

For `CN(C)CCCn1cc(C2=C(c3c[nH]c4ccccc34)C(=O)NC2=O)c2ccccc21` [GF-109203×], the “effect on the activity” value [1] was “no significant effect”.

In the case of “GST-Akt-3 T305D,S472D (construct hAKT-3(T305D/S472D)/pGEX-4T-3)”, the “initial rate … relative to the wild-type enzyme” value (histone H2B [6]) is reported as 3.2-fold increase.

For `O=c1cc(N2CCOCC2)oc2c(-c3ccccc3)cccc12` [CY29 4002], the “inhibition of activation of Akt-3” value (Akt-3 [3]; prior treatment, 100 FM, HEK-293 cells stimulated with IGF, data not shown) was 94%.

With `CCCCCCOC(=O)[C@]1(O)C[C@@H]2O[C@@]1(C)n1c3ccccc3c3c4c(c5c6ccccc6n2c5c31)C(=O)NC4` [KT5720] the “effect on the activity” value [1] was “no significant effect”.

With `COc1cccc(-c2cc(=O)c3ccccc3o2)c1N` [PD 98059] the “effect on the activity” value [1] was “no significant effect”.

For `O=S(=O)(NCCNC/C=C/c1ccc(Br)cc1)c1cccc2cnccc12` [H-89], the “effect on the activity” value [1] was “no significant effect”.

In the case of “GST-Akt-3 T305D (construct hAKT-3(T305D)/pGEX-4T-3)”, the “initial rate … relative to the wild-type enzyme” value (histone H2B [6]) is reported as 2.0-fold increase.

For `Cn1c2ccccc2c2c3c(c4c5ccccc5n(CCC#N)c4c21)CNC3=O` [Go 6976], the “effect on the activity” value [1] was “no significant effect”.

B1: GST-Akt-3 wild type (construct hAKT-3(WT)/pGEX-4T-3) (protein)
chain: MSDVTIVKEGWVQKRGEYIKNWRPRYFLLKTDGSFIGYKEKPQDVDLPYPLNNFSVAKCQLMKTERPKPNTFIIRCLQWTTVIERTFHVDTPEEREEWTEAIQAVADRLQRQEEERMNCSPTSQIDNIGEEEMDASTTHHKRKTMNDFDYLKLLGKGTFGKVILVREKASGKYYAMKILKKEVIIAKDEVAHTLTESRVLKNTRHPFLTSLKYSFQTKDRLCFVMEYVNGGELFFHLSRERVFSEDRTRFYGAEIVSALDYLHSGKIVYRDLKLENLMLDKDGHIKITDFGLCKEGITDAATMKTFCGTPEYLAPEVLEDNDYGRAVDWWGLGVVMYEMMCGRLPFYNQDHEKLFELILMEDIKFPRTLSSDAKSLLSGLLIKDPNKRLGGGPDDAKEIMRHSFFSGVNWQDVYDKKLVPPFKPQVTSETDTRYFDEEFTAQTITITPPEKYDEDGMDCMDNERRPHFPQFSYSASGRE
For B1, the “phosphorylation of histone H2B” value (histone H2B [7]) was “The purified enzyme was able to phosphorylate histone H2B”.
